What was measured:
[1] = biological target: T1, COX-1 (Ovis aries, UniProt P05979); test: COX (ovine) inhibitor screening assay kit; […] inhibition at […]; assay type: biochemical
T1 construct: gene PTGS1
T1 sequence (P05979 25-600): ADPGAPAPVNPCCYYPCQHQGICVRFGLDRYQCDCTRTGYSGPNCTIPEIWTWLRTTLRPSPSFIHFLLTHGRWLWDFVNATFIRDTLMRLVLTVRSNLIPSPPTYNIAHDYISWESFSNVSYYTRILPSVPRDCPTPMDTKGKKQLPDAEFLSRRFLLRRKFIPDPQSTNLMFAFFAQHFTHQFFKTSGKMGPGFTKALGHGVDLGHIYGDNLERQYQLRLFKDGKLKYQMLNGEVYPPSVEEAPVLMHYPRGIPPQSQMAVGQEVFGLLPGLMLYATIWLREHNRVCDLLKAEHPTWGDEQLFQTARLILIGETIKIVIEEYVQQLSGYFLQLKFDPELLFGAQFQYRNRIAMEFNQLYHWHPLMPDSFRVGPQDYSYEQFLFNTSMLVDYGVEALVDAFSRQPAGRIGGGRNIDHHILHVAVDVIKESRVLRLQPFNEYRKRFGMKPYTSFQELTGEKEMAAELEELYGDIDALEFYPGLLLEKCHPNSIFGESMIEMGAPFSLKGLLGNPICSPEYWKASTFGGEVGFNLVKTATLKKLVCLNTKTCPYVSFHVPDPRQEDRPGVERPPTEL

[2] = biological target: T2, COX-2 (Ovis aries, UniProt P79208); test: COX (ovine) inhibitor screening assay kit, PGF2α produced by SnCl2 reduction of COX-derived PGH2, read at […] nm; assay type: biochemical
T2 construct: gene PTGS2
T2 sequence (P79208 17-603): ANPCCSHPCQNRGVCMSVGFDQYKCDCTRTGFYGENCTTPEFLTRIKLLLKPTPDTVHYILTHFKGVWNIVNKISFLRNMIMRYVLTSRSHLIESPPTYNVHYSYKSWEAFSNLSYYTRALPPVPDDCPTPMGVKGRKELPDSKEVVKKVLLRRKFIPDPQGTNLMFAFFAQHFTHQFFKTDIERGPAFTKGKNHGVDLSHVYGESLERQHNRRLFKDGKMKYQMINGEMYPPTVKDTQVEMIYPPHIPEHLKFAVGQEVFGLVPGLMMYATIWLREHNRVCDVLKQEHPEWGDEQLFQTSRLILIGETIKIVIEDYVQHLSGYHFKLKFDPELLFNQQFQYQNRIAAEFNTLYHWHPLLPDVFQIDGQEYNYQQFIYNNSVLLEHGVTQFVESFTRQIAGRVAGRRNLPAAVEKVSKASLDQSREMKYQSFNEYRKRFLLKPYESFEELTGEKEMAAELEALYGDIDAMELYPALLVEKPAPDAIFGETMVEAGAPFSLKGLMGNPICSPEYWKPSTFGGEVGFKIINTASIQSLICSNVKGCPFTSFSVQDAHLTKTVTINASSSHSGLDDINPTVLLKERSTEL

## C=C(C)[C@@H]1CC[C@]2(CO)CC[C@]3(C)[C@H](CC[C@@H]4[C@@]5(C)CC[C@H](O)C(C)(C)[C@@H]5CC[C@]43C)[C@@H]12 [AN-10]
[1]
  IC50: > 10 µM
[2]
  IC50: < 1 µM

Source: article PMC9174266, “Isolation, characterization and biological activities of betulin from Acacia nilotica bark” (Scientific Reports, 2022)
